Results on 1 compound are retold here after US20070197599A1, “HYDROXYLAMINES AND DERIVATIVES AS ANTI-ANGIOGENIC AGENTS” (priority 2006, published 2007).

Where two headings read alike, the source gives them in different places.

The test system of assay [1] is H2O2-induced angiogenesis in the CAM model. The experiment in a line: H2O2-induced angiogenesis in the chick chorioallantoic membrane (CAM) model. The assay is classed as in vivo. As to conditions: for inhibition at 88 µM: Gallus gallus. Here is the method: Neovascularization was examined by previously described methods (see references at the end of Example 5). Ten-day-old fertilized chicken eggs were incubated at 37° C. with 55% relative humidity. In the dark with the help of candling lamp and using a hypodermic needle a small hole was punctured in the shell covering the air sac. A second hole was punctured on the wider side of the egg above an avascular area of the embryonic membrane. An artificial air sac was created below the second hole by applying gentle vacuum to the first hole using a small rubber squeeze bulb. The vacuum caused the separation of chorioallantoic membrane (CAM) from the shell. An approximately 1.0 cm^2 widow was cut in the shell over the dropped CAM with the use of a mini drill. The underlying CAM was accessed through this small window.
Filter disks were punched using a small puncher from filter paper #1 (Whatman International, United Kingdom). Filter disks were soaked in 3 mg/ml cortisone acetate solution (95% ethanol and water) and air-dried under sterile condition. For inducing angiogenesis, sterile filter disks were saturated with bFGF (1 μg/ml) or other pro-angiogenesis factors and control disks were saturated with PBS without Calcium and Magnesium.
Using sterile forceps one filter/CAM was placed from the window. The window was sealed with Highland brand transparent tape. After 24 hr, 10-25 µl of test agent (inhibitor) was injected intravenously or added topically into the CAM membrane of bFGF or other pro-angiogenesis factors stimulated CAMs. • Control filter disks received PBS without Calcium and Magnesium. • After 48 hr, CAM tissue directly beneath filter disk was harvested and placed in a 35-mm Petri dish. Eight-Ten eggs/treatment group was used.
A pro-angiogenic agent (see Examples, below) was added to induce new blood vessel branches on the CAM of 10-day old embryos. Sterile disks of #1 filter paper (Whatman International, United Kingdom) were pre-treated with 3 mg/ml cortisone acetate, and air dried under sterile conditions. The disks were then suspended in PBS (Phosphate Buffered Saline) and placed on growing CAMs. Filters treated with TPH (TEMPOL-H) or TEMPOL and/or H2O2 or TPH and/or bFGF or VEGF were placed on the first day of the 3-day incubation.
Digital Images and Microscopic analysis of CAM sections: CAM sections from Petri dish were examined using SV6 stereomicroscope (Karl Zeiss) at 50× magnification. Digital images were captured using a 3-CCD color video camera system (Toshiba America, New York, N.Y.). These images were analyzed using Image-Pro Plus software (Media Cybernetics). The number of branch points in blood vessels within the circular region superimposed to the area of a filter disk was counted for each section. After incubation at 37° C. with 55% relative humidity for 3 days, the CAM tissue directly beneath each filter disk was resected from control and treated CAM samples. Tissues were washed three times with PBS. Sections were placed in a 35-mm Petri dish (Nalge Nunc; Rochester, N.Y.) and were examined under a SV6 stereomicroscope (Karl Zeiss; Thornwood, N.Y.) at 50× magnification. Digital images of CAM sections adjacent to filters were collected using a 3-CCD color video camera system (Toshiba America; New York, N.Y.) and analyzed with the Image-Pro Plus software (Media Cybernetics; Silver Spring, Md.). The number of vessel branch points contained in a circular region equal to the area of a filter disk was counted for each section. Percent inhibition data are expressed as the quotient of the experimental value minus the negative control value divided by the difference between the positive control value and the negative control value. One image was counted in each CAM preparation, and findings from eight CAM preparations were analyzed for each treatment condition. In addition, each experiment was performed three times. […]

For assay [2], the system named is mouse V79 cells. The following applies: Mitchell et al., 2000; cited from earlier work.
Assay [3] deals with selenite induced cataract. The following applies: mice; cited from earlier work.
Assay [4] relates to lens endothelial cells. As to conditions: in vitro; Sasaki et al., 1998; cited from earlier work.

As for `CC1(C)CC(O)CC(C)(C)N1[O]` [TEMPOL, 4-hydroxy-2,2,6,6-tetramethylpiperidine-N-oxyl radical, reference compound], in assay [1] (CAM model, Tables 1A and 1B), the “inhibition of angiogenesis induced by super-maximal concentrations of H2O2” value was “effectively inhibited”. For the same compound, the inhibition (as a rule, the share of the control response that was lost under treatment) at 88 µM in assay [1] (read-out: % Inhibition ± SD, H2O2 (88 μM, 30 ng) + 100 μg test agent) turned out to be 32.1 ± 14.1%; in assay [1] (read-out: % Inhibition ± SD, H2O2 (88 μM, 30 ng) + 200 μg test agent), 32.5 ± 12.1%; in assay [1] (read-out: % Inhibition ± SD, H2O2 (88 μM, 30 ng) + 400 μg test agent) it was 30.1 ± 8.7%; in assay [1] (read-out: % Inhibition ± SD, H2O2 (88 μM, 30 ng) + 800 μg test agent) it was 60.9 ± 3.2%. Also, the “radioprotection of mouse V79 cells” value in assay [2] is “concentration dependent”. The “prevention of selenite induced cataract” value in assay [3] was “not effective”. For the same compound, the “prevention of X-ray radiation damage to lens endothelial cells” value in assay [4] is recorded as “prevented X-ray radiation damage”.
